Data from PubChem BioAssay AID1191 (EPA DSSTox, 2008).
Active and inactive are the calls of the source.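 How the source made its calls: active means at least one hamster carcinogenic potency value with a tumor site listed for any sex group; inactive means no potency or tumor site yet a negative hamster study.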

tested on: hamster chronic carcinogenicity bioassay, TD50; assay: DSSTox (CPDBAS) Carcinogenic Potency Database Summary Hamster Bioassay Results
Description: The Carcinogenic Potency Database (CPDB) is a unique and widely used international resource of the results of over 6500 chronic, long-term animal cancer tests on over 1500 chemical substances. The CPDB provides easy access to the bioassay literature, with qualitative and quantitative analyses of both positive and negative experiments that have been published over the past 50 years in the general literature and by the National Cancer Institute/National Toxicology Program. The CPDB standardizes the diverse literature of cancer bioassays that vary widely in protocol, histopathological examination and nomenclature, and in the published author's choices of what information to provide in their papers. Results are reported in the CPDB for tests in rats, mice, hamsters, dogs, and nonhuman primates, and are based on the most positive result among all experiments for each sex-species. The DSSTox CPDBAS (all species) file incorporates data from the CPDB Summary Tables for the full list of over 1500 chemical substances tested in at least one species. Summary bioassay results for Hamster (TD50, tumor sites, male, female, both sexes) are provided in the CPDB Summary Tables and the DSSTox CPDBAS file for over 80 chemical substances.
TD50 is a standardized quantitative measure of carcinogenic potency (analogous to an LD50) and is reported in the CPDB Summary Table for each species. Activity Score for actives is computed by mapping of LOG10 (1/TD50_Hamster_mmol) activity values spanning range [MIN, MAX] onto Integer 1-100 Activity Score range, where 100 is highest potency and 1 is lowest: Activity Score = 100 * INTEGER[(log10(1/Activity) - MIN)/(MAX - MIN)]. If activity is reported but no TD50_Hamster_mmol value is computed, such as for a mixture, the Activity Score is assigned the activity value "50". […] Target sites are reported for each sex-species group with a positive result in the CPDB on the basis of a positive author's opinion for the particular site, using all results from both the general literature and NCI/NTP bioassays. If a chemical has two or more target sites listed, the results may be from different experiments, and a single site may be a target organ in more than one experiment, as well. Blank entry in TargetSites field indicates no results reported.

Row | Compound | Potency [mg/kg/day] | outcome
1 | COCCl | 16.4 | 
2 | NNC(=O)c1ccncc1 |  | inactive; no positive results
3 | C=CCN(CC(C)=O)N=O | 1.19 | 
4 | CC(=O)Nc1ccc2c(c1)Cc1ccccc1-2 | 17.4 | 
5 | CC(C)OC(=O)Nc1ccccc1 |  | inactive; no positive results
6 | CCO |  | inactive; no positive results
7 | CC1CN(N=O)C(=O)O1 (stereo not given) | 0.172 | 
8 | CC1CN(N=O)CC(C)N1C (stereo not given) | 1.32 | 
9 | C=O |  | inactive; no positive results
10 | O=NN1CCOCC1 | 3.57 | 
11 | CN(C)CCN(Cc1cccs1)c1ccccn1 |  | inactive; no positive results
12 | O=NO |  | inactive; no positive results
13 | O=Cc1ccco1 |  | inactive; no positive results
14 | OCC1CO1 (stereo not given) | 56.1 | 
15 | CCOC(N)=O | 65.2 | 
16 | CN(C)C(=O)Cl | 0.625 | 
17 | Nc1ncn[nH]1 |  | inactive; no positive results
18 | O=S(=O)(O)O | 118 | 
19 | O=C(O)c1ccc(O)c(O)c1 |  | inactive
20 | NC(=O)/C(=C\c1ccc([N+](=O)[O-])o1)c1ccco1 | 164 | 
21 | ClC(Cl)=C(c1ccc(Cl)cc1)c1ccc(Cl)cc1 | 202 | 
22 | CN(CC(O)CO)N=O (stereo not given) | 0.94 | 

Row | Compound | Potency [mg/kg/day] | outcome
23 | CCOC(=O)N(C)N=O | 0.127 | 
24 | COC1=CC(=O)C[C@@H](C)[C@]12Oc1c(Cl)c(OC)cc(OC)c1C2=O |  | inactive; no positive results
25 | ClC=C(Cl)Cl |  | inactive; no positive results
26 | C=CCN(CC=C)N=O | 1.54 | 
27 | O=C(O)c1ccncc1 |  | inactive; no positive results
28 | N#[N+]c1ccccc1 |  | inactive; no positive results
29 | O=NN1CCCC1c1cccnc1 (stereo not given) | 10.8 | 
30 | O=NN1CCCC1 | 14.2 | 
31 | O=NN1CCC1 | 7.14 | 
32 | S=C=NCCc1ccccc1 |  | inactive
33 | CC1CN(N=O)CC(C)O1 (stereo not given) | 2 | 
34 | O=C(C1CCCCC1)N1CC(=O)N2CCc3ccccc3C2C1 (stereo not given) |  | inactive; no positive results
35 | CC(=O)CN(CC(O)CO)N=O (stereo not given) | 0.754 | 
36 | CC(C)(OCc1ccc(-c2ccc(Cl)cc2)cc1)C(=O)O |  | inactive; no positive results
37 | ClC1=C(Cl)[C@]2(Cl)[C@@H]3[C@@H]4C[C@@H]([C@H]5O[C@@H]45)[C@@H]3[C@@]1(Cl)C2(Cl)Cl |  | inactive; no positive results
38 | CCN(N=O)C(=O)NCCO | 1.04 | 
39 | O=NN1CCOC1 | 0.798 | 
40 | O=c1ccc2ccccc2o1 |  | inactive; no positive results
41 | CC(C)(Oc1ccc(C2CCCc3ccccc32)cc1)C(=O)O (stereo not given) |  | inactive; no positive results
42 | CC=O | 565 | 
43 | CC1CN(N=O)CC(C)N1N=O (stereo not given) | 3.1 | 
44 | C=CC(=C)Cl |  | inactive; no positive results

Row | Compound | Potency [mg/kg/day] | outcome
45 | CN(Cc1cnc2nc(N)nc(N)c2n1)c1ccc(C(=O)N[C@@H](CCC(=O)O)C(=O)O)cc1 |  | inactive; no positive results
46 | CC1=CC(=C(c2ccc(N)cc2)c2ccc(N)cc2)C=CC1=N |  | inactive; no positive results
47 | O=CNc1nc(-c2ccc([N+](=O)[O-])o2)cs1 | 9.77 | 
48 | CN(C)N | 124 | 
49 | CN(N)C=O | 5.8 | 
50 | O=NN1CCCCC1 | 83.3 | 
51 | Cc1cc(=O)[nH]c(=S)[nH]1 | 53.4 | 
52 | NC(=O)N(CCc1ccccc1)N=O | 0.964 | 
53 | O=NN(CCO)CC(O)CO (stereo not given) |  | inactive
54 | CC(=O)CN(N=O)C(=O)NCCCl | 0.338 | 
55 | O=CNNc1nc(-c2ccc([N+](=O)[O-])o2)cs1 | 16.6 | 
56 | CN(C)CCN(C)N=O | 3.83 | 
57 | c1ccc(Nc2ccc3ccccc3c2)cc1 |  | inactive; no positive results
58 | CN(CCCC(=O)c1cccnc1)N=O |  | inactive
59 | F[B-](F)(F)F |  | inactive; no positive results
60 | C=CCl | 39.4 | 
61 | CC(=O)N(O)c1ccc2c(c1)Cc1ccccc1-2 | 2.1 | 
62 | Clc1c(Cl)c(Cl)c(Cl)c(Cl)c1Cl | 4.96 | 
63 | CC(=O)CN(CCO)N=O | 0.997 | 
64 | CCC1(c2ccccc2)C(=O)NC(=O)NC1=O |  | inactive; no positive results
65 | O=S(=O)([O-])[O-].[Cd+2] |  | inactive; no positive results
66 | CC(=O)CN(N=O)C(N)=O | 0.13 | 

Row | Compound | Potency [mg/kg/day] | outcome
67 | CCN(N=O)C(=O)NCC(C)=O | 0.443 | 
68 | C[C@@H]1O[C@@H](OC[C@H]2O[C@@H](Oc3c(-c4ccc(O)c(O)c4)oc4cc(O)cc(O)c4c3=O)[C@H](O)[C@@H](O)[C@@H]2O)[C@H](O)[C@H](O)[C@H]1O |  | inactive; no positive results
69 | O=c1c(O)c(-c2ccc(O)c(O)c2)oc2cc(O)cc(O)c12 |  | inactive; no positive results
70 | NNCCO |  | inactive; no positive results
71 | CC(O)CN(CC(O)CO)N=O (stereo not given) | 1.59 | 
72 | O=[N+]([O-])c1ccc2c3c(cccc13)CC2 |  | inactive
73 | C=C(C)C(=O)OC |  | inactive; no positive results
74 | [Cd+2].[Cl-].[Cl-] |  | inactive; no positive results
75 | Clc1ccc(C(c2ccc(Cl)cc2)C(Cl)(Cl)Cl)cc1 |  | inactive; no positive results
76 | O=NN1CCCC1c1ccc[n+]([O-])c1 (stereo not given) |  | inactive; no positive results
77 | Cc1cccc(Nc2cc(Cl)nc(SCC(=O)O)n2)c1C |  | inactive; no positive results
78 | CC(C)OC(=O)Nc1cccc(Cl)c1 |  | inactive; no positive results
79 | COc1ccc(O)c(C(C)(C)C)c1 |  | inactive; no positive results
80 | N=C1C=CC(=C(c2ccc(N)cc2)c2ccc(N)cc2)C=C1 |  | inactive; no positive results
81 | CNN | 11.5 | 
82 | CC(=O)Nc1nc(-c2ccc([N+](=O)[O-])o2)cs1 | 8.91 | 
83 | [O-][Br+2]([O-])O | 533 | 
84 | CNNC | 0.179 | 
85 | NN | 4.16 | 
